Test results published in patent US20220030866A1, “CONJUGATES OF AUXIN ANALOGS” (The State of Israel, Ministry of Agriculture & Rural …, priority 2019, published 2022).

Columns and labels:
Format in all cases: in vivo
mung bean cuttings = assay: rooting of mung bean cuttings (number of adventitious roots per cutting); settings: for effect on AR formation in mung bean cuttings, in words: tested at 2, 10 or 50 μM
Method: Mung bean cuttings have been used for many years as a model for assessing the effect of plant hormones and synthetic chemicals on the rooting process. In the present study, this system was used to ascertain activity of conjugates in inducing adventitious root (AR) formation, and to evaluate the rate of conjugate hydrolysis that releases the free active auxin. […] The rooting activity in this system is determined by the number of adventitious roots per cutting.
The mung bean model was used to examine the activity of conjugates of three phenoxy acids, 4-CPA, MCPA, and 2-DP, on rooting. For comparison, plants were treated with (unconjugated) IBA or with 2-DP conjugated to glycine methyl ester (Gly-ME).

[1] = tested on: cuttings from mature Eucalyptus grandis trees; assay: rooting of cuttings from mature Eucalyptus grandis trees; settings: 100 μM conjugate without IBA, or 28 mM (6000 ppm) IBA alone; submerging base or spraying; scored after 45-60 days
Method: Eight-year-old Eucalyptus grandis plants were grown from seeds and placed in a net house in 20 liter pots containing peat and tuff (70:30, v/v), drip irrigated and fertilized with 3 liters of Shefer™ 737 liquid fertilizer (ICL Fertilizers, Israel) per cubic meter of water. Cuttings were collected from branches which grew 2-2.5 meters above the ground. Cuttings were 2-3 mm thick branches, 15 cm long, with 1-2 pairs of leaves. The leaf blades were cut in half to decrease transpiration. Cuttings were treated with 6000 ppm IBA (potassium indole-3-butyric acid) for 1 minute with or without 100 μM of each tested compound. The tested compounds were either applied to the base of the cutting, with or without IBA and/or sprayed on the foliage in the presence of 0.05% Triton™ X-100 surfactant. Cuttings were rooted in rooting tables heated to 25° C. under constant 90% humidity, in a controlled-climate greenhouse. The rooting medium contained crushed polystyrene foam: vermiculite no. 3: pit (3:2:1, v/v/v). Rooting was recorded after 30-60 days. Roots system architecture was analyzed by WinRHIZO™ system scanner and software.
Exemplary conjugates prepared as described in Example 1 were tested for their ability to promote adventitious root (AR) formation in cuttings from mature eucalyptus (Eucalyptus grandis) trees. In this model, AR formation is difficult to induce, with 5-15% root development in the presence of IBA potassium salt [Abu-Abied et al., Plant J 2012, 71:787-799], such that effective AR formation indicates a potent root formation activity.
Various concentrations and mode of applications were tested for each compound in the presence or absence of IBA (the “gold standard” rooting enhancer). A concentration of 100 μM of each conjugate was used for an initial screen of 37 conjugates, in which the compounds were applied to the base of the cutting by dipping (submerging the cutting base in a solution of the conjugate for one minute) or to the foliage by spraying. After 45 days, the cuttings were scored for the presence of callus or roots.
Conjugates prepared as described herein were evaluated in a Eucalyptus grandis rooting model, according to procedures such as described hereinabove. The bases of cuttings (a 12-15 cm long branch with the two upper leaves, whose blades were cut in half) were dipped in a solution containing 6000 ppm IBA potassium salt and 50 μM of conjugate for 1 minute, and the leaves were sprayed with 50 μM of the same conjugate (mixed with 0.5% Triton™ X-100 surfactant). The cuttings were imbedded in a heated (25° C.) rooting table containing a 1:2:3 ratio of peat:vermiculite:polystyrene, under 90% relative humidity.

[2] = tested on: cuttings from mature Eucalyptus grandis trees; assay: as above; settings: 100 μM compound by submerging or spraying, with 6000 ppm IBA
Arabidopsis seedlings = assay: root elongation inhibition in Arabidopsis seedlings; settings: 50 nM, after 5 days
Method: Adventitious roots (ARs) were induced in intact plants, using previously described procedures [Gutierrez et al., Plant Cell 2009, 21:3119-3132; Abu-Abied et al., Plant J 2012, 71:787-799; Rasmussen et al., Plant Physiol 2012, 158:1976-1987]. Briefly, seeds were germinated on MS/0.8% agar plates supplemented with 3% sucrose. The plates were kept in the dark for 2 days at 4° C., then 5 days at 22° C. in the dark, 2 days in the light, 3 days in the dark and then additional 4 days in the light to complete 2 weeks when roots were counted using a stereoscope. Sensitivity to auxin and/or auxin analogs was determined by following root elongation on vertical plates. The 4-day-old seedlings were transferred to MS plates containing 0.05 or 0.5 μM IAA and the root length was measured after 5 days, including the number of LRs in each root and calculation of the LR density. Each treatment experiment included 10-15 plants and was repeated 3 times.
A common technique for evaluating auxin activity is by determining the ability of a compound to inhibit root elongation [Zolman et al., Genetics 2000, 156:1323-1337]. In order to use this assay for comparing auxin activities of different conjugates, the minimum concentration of free 4-CPA that is active in the root elongation inhibition assay was determined. Four days old seedlings were placed in vertical plates containing increasing concentrations of 4-CPA. The root lengths were marked daily during 5 days.
Based on the above results, the effect of conjugates of 4-CPA (Compounds 1o-1t) on root elongation after 5 days was determined at concentrations of 50 nM.

[3] = tested on: Pinus halepensis cuttings; assay: rooting and root development in pine cuttings; settings: 400 ppm IBA potassium salt + 5 ppm conjugate, 4 hours dip; 12 weeks
Method: The effects of exemplary D-amino acid conjugates of 4-CPA (Compounds to and Is) on rooting in Pinus halepensis cuttings were compared with those of 2-DP-glycine methyl ester conjugate (2-DP-Gly). Rooting mature pine cuttings (i.e., cuttings that are taken from trees more than 4 years old) is very difficult.
Apical cuttings were taken from 7-year-old trees, stored for 4 weeks at 4° C., and treated by dipping the cutting bases for 4 hours in the following solution: 400 ppm IBA potassium salt+5 ppm tested conjugate+0.1% Amistar™ fungicide (250 grams/liter azoxystrobin). The cuttings were evaluated after 12 weeks.

[4] = tested on: avocado rootstock cuttings; assay: rooting of avocado rootstock cuttings; settings: vc51 rootstock, IBA with compound
Description: Avocado rootstock is extremely difficult to root. Currently, the common technique for propagating clones of avocado rootstock is to graft the desired rootstock on a seedling, and transfer to the dark to generate an etiolated branch. This branch can be rooted and grafted with the desired variety while still grafted on the seed [Frolich & Platt, California Avocado Society 1971-72 Yearbook 1972, 55:97-109]. However, the preparation of such twice-grafted seedlings is time-consuming and expensive.
The ability of exemplary conjugates to promote rooting in green avocado cuttings (in the presence of IBA) was therefore examined. In particular, Compounds 2h (MCPA-methanol), 4b (NAA-β-alanine methyl ester), 3g (2-DP-methyl-4-aminobenzoate), 3f (2-DP-p-toluidine), 1l (4-CPA-morpholine) and is (4-CPA-D-Trp) were tested.
Exemplary conjugates were also tested for rooting the hard-to-root species of avocado (VC801 rootstock) and argan, according to procedures described hereinabove.

DR5:venus marker = assay: auxin activity by DR5:venus fluorescence in Arabidopsis plants; settings: 10 μM
Method: Imaging was performed using an SP8 Leica confocal microscope including solid-state lasers producing 405, 488, 514 and 552 nm light, and hybrid or PMT detectors. Objectives were either PL APO 20×/0.75, WD 0.62 mm or PL APO 63×/1.2 WD 0.3 mm. For fluorescence measurements, the Imaris™ spot detection option (Bitplane A.G.) was used to segment nuclei and calculate the average signal intensity.
One technique for assessing auxin activity of the 4-CPA amino acid conjugates utilized plants expressing nucleus-localized, fluorescent DR5:venus marker, the expression level of which is an indicator of intracellular auxin activity [Laskowski et al., PLoS Biol 2008, 6:e307]. Four days old seedlings grown on regular MS medium were transferred to plates containing 10 μM of the tested compounds and fluorescence was inspected by confocal microscope after 24 hours.
In order to assess the ability of the abovementioned sodium salts to penetrate the cells and activate an auxin response, an Arabidopsis DR5-Venus model was utilized (as described hereinabove). The plants were exposed to 10 μM of each compound for 24 hour; MS medium was used as a negative control, and the related Compounds 1p, 1r and 1t were used as positive controls.

[5] = Table 1, 10 μM, water control 29.6
[6] = Table 1, 50 μM, water control 29.6

O=C(COc1ccc(Cl)cc1)NCCO [Compound 1a, 4-CPA-ethanolamine]
rooting of mung bean cuttings (number of roots per cutting) (mung bean cuttings; [5]): 49.5
rooting of mung bean cuttings (number of roots per cutting) (mung bean cuttings; [6]): 14.9
percentage of cuttings which exhibited rooting, stand-alone treatment [1]: 15%
rooting in combination with IBA compared with IBA alone, in words [2]: enhanced rooting in comparison with IBA alone

COC(=O)CCNC(=O)COc1ccc(Cl)cc1 [Compound 1b, 4-CPA-β-alanine methyl ester]
rooting of mung bean cuttings (number of roots per cutting) (mung bean cuttings; [5]): 0
rooting of mung bean cuttings (number of roots per cutting) (mung bean cuttings; [6]): 0
rooting in combination with IBA compared with IBA alone, in words [2]: enhanced rooting in comparison with IBA alone

Cc1ccc(NC(=O)COc2ccc(Cl)cc2)cc1 [Compound 1f, 4-CPA-p-toluidine]
rooting of mung bean cuttings (number of roots per cutting) (mung bean cuttings; [5]): 0
rooting of mung bean cuttings (number of roots per cutting) (mung bean cuttings; [6]): 0
rooting in combination with IBA compared with IBA alone, in words [2]: enhanced rooting in comparison with IBA alone

COC(=O)c1ccc(NC(=O)COc2ccc(Cl)cc2)cc1 [Compound 1g, 4-CPA-methyl-4-aminobenzoate]
rooting of mung bean cuttings (number of roots per cutting) (mung bean cuttings; [5]): 0
rooting of mung bean cuttings (number of roots per cutting) (mung bean cuttings; [6]): 0
rooting in combination with IBA compared with IBA alone, in words [2]: enhanced rooting in comparison with IBA alone

COC(=O)C[C@@H](NC(=O)COc1ccc(Cl)cc1)C(=O)OC [Compound 1q, 4-CPA-D-Asp-methyl diester]
rooting of mung bean cuttings (number of roots per cutting) (mung bean cuttings; Table 2, 2 μM): 67
rooting of mung bean cuttings (number of roots per cutting) (mung bean cuttings; Table 2, 10 μM): 0
rooting of mung bean cuttings (number of roots per cutting) (mung bean cuttings; Table 2, 50 μM): 0
effect on root elongation relative to control, in words (Arabidopsis seedlings): did not affect root elongation

COC(=O)C[C@H](NC(=O)COc1ccc(Cl)cc1)C(=O)OC [Compound 1r, 4-CPA-L-Asp-methyl diester]
rooting of mung bean cuttings (number of roots per cutting) (mung bean cuttings; Table 2, 2 μM): 121
rooting of mung bean cuttings (number of roots per cutting) (mung bean cuttings; Table 2, 10 μM): 34
rooting of mung bean cuttings (number of roots per cutting) (mung bean cuttings; Table 2, 50 μM): 0
effect on AR formation in mung bean cuttings, in words (mung bean cuttings): exhibited more activity than the D-Asp-methyl ester conjugate
effect on root elongation relative to control, in words (Arabidopsis seedlings): inhibited root elongation relative to control
rooting in combination with IBA compared with IBA alone, in words [2]: at least as potent as that of their corresponding D-amino acid conjugates

COC(=O)CNC(=O)C(C)Oc1ccc(Cl)cc1Cl (centres unmarked) [Compound 2-DP-Gly, reference compound]
rooting of mung bean cuttings (number of roots per cutting) (mung bean cuttings; [6]): 97.2
effect on AR formation in mung bean cuttings, in words (mung bean cuttings): positively correlated to dose
Degree of root development Medium (%) [3]: 6.6%
Degree of root development Weak (%) [3]: 46.7%
Degree of root development Well-developed (%) [3]: 46.7%
Rooting rate (%) [3]: 87.5%

Cc1ccc(NC(=O)C(C)Oc2ccc(Cl)cc2Cl)cc1 (centres unmarked) [Compound 3f, 2-DP-p-toluidine]
roots per cutting of green avocado branches compared with etiolated branches treated with IBA, in words [4]: considerably more roots per cutting
rooting success rate of green avocado branches, in words ([4]; compared with IBA alone): considerably enhanced the rooting success rate
rooting in combination with IBA compared with IBA alone, in words [2]: enhanced rooting in comparison with IBA alone

COC(=O)C(C)Oc1ccc(Cl)cc1Cl (centres unmarked) [Compound 3h, 2-DP-methanol]
rooting in combination with IBA compared with IBA alone, in words [2]: enhanced rooting in comparison with IBA alone

COC(=O)CNC(=O)COc1ccc(Cl)cc1 [Compound 4-CPA-Gly, 4-CPA-Gly-methyl ester]
appearance of the base of mung bean cuttings (mung bean cuttings; FIGS. 4A, 4B): appeared swollen, but no AR developed
effect on AR formation in mung bean cuttings, in words (mung bean cuttings): induced a similar rooting rate only at the lowest tested concentration of 2 μM
rooting in combination with IBA compared with IBA alone, in words [2]: exhibited lower rooting activity than the other conjugates

CC(C)[C@H](NC(=O)COc1ccc(Cl)cc1)C(=O)[O-].[Na+] [Compound 83, 4-CPA-L-Val sodium salt]
DR5 fluorescence (auxin activity), in words (DR5:venus marker): about as active as their non-water soluble methyl esters

O=C([O-])C[C@H](NC(=O)COc1ccc(Cl)cc1)C(=O)[O-].[Na+].[Na+] [Compound 84, 4-CPA-L-Asp disodium salt]
DR5 fluorescence (auxin activity), in words (DR5:venus marker): did not promote DR5 activity
